Earlier results as cited in patent US20020192671A1, “Method and system for predicting the biological activity, including toxicology and toxicity, of substances” (priority 2001, published 2002).

SMILES	toxic effect at high non-therapeutic doses	effect of chronic treatment in rodents (rodents)	effect on cytochrome P450 4A levels (cytochrome P450 4A)	effect on P450 4F levels (P450 4F)
CC(=O)Nc1ccc(O)cc1 [APAP, acetaminophen]	hepatic and renal failure	–	–	–
CCOC(=O)C(C)(C)Oc1ccc(Cl)cc1 [Clofibrate]	–	hepatomegaly, an increase in hepatic peroxisomes	increase levels of cytochrome P450 4A	reduce the levels of P450 4F
